In patent publication US7744889B2, “Alpha, beta-unsaturated sulfoxides for treating proliferative disorders” (Temple University - Of The Commonwealth System of Higher …, priority 2003, dated 2010) one finds melting point and GI50 data, which are given here for five compounds.

For one data set, the system named is DU145, BT20, H157, DLD1. Kind of data set: Effect on tumor cell lines, viability by Trypan blue exclusion after 96 hours. The settings on record: concentration required for 50% growth inhibition vs vehicle (DMSO) treated cells, doses 10 nM to 5 μM, one class for the four cell lines. In kind it is cell-based. How it is done: The effect of the α,β-unsaturated sulfoxides according to Formula I on tumor cells of prostate, colon, lung and breast origin was examined by utilizing the following cell lines: prostate tumor cell line DU-145; colorectal carcinoma cell line DLD-1; non-small cell lung carcinoma cell line H157; and breast tumor cell line BT-20. BT-20 is an estrogen-unresponsive cell line. BT-20, DLD-1 and H157 were grown in Dulbecco's modified Eagle's medium (DMEM) containing 10% fetal bovine serum supplemented with penicillin and streptomycin. DU145 was cultured in RPMI with 10% fetal bovine serum containing penicillin and streptomycin. NIH/3T3 (normal murine fibroblasts) and HFL-1cells (normal diploid human lung fibroblasts) were grown in DMEM containing 10% calf serum supplemented with penicillin and streptomycin.
Cells were plated at density levels of 1.0×10^5 cells per well in six-well plates. Cell cultures were maintained at 37° C. in a humidified atmosphere of 5% CO2.
Cells were treated with compounds of the invention at doses ranging from 10 nM to 5 μM concentration, and cell viability was determined after 96 hours by the Trypan blue exclusion method.
Values are reported as the GI50, i.e., the concentration (μM) required for 50% growth inhibition as compared to vehicle (DMSO) treated cells. The values reported in Table 7 are: ***=10-100 nM; **=100 nM-1μM; and *=>1μM.
Cells were treated with the test compound at concentrations in the range from 10 nM to 5 μM, and cell viability was determined after 96 hours by the Trypan blue exclusion method.

In general, melting point refers to the temperature, or range, at which the solid turns liquid. The GI50 is the concentration giving 50% growth inhibition.

A value given as a limit tells only on which side of the number the result lay.

`COc1ccc(C[S+]([O-])/C=C/c2c(OC)cc(OC)cc2OC)cc1` (stereo not drawn) [Example 29] yielded a melting point of 92 to 94 °C. In the data set with DU145, BT20, H157, DLD1, this compound gave a concentration for 50% growth inhibition (GI50) of 0.1 to 1 µM.

Compound `COc1cc(OC)c(/C=C/[S+]([O-])Cc2ccc(OC)c([N+](=O)[O-])c2)c(OC)c1` (stereo not drawn) [Example 30] yielded a melting point of 140 to 146 °C. Besides, in the data set on DU145, BT20, H157, DLD1, the GI50 was above 1 µM.

The compound `COc1cc(OC)c(/C=C/[S+]([O-])Cc2ccc(OC)c(O)c2)c(OC)c1` (stereo not drawn) [Example 31] yielded a melting point of 112 to 115 °C. The 50% growth inhibitory concentration (GI50) with DU145, BT20, H157, DLD1 was 0.01 to 0.1 µM.

In turn, `O=C(O)c1ccc(/C=C/[S+]([O-])Cc2ccc(Cl)cc2)cc1` (stereo not drawn) [Example 32] returned a melting point of 270 to 274 °C.

The compound `COc1cc(OC)c(/C=C/[S+]([O-])Cc2ccc(OC)c(N)c2)c(OC)c1` (stereo not drawn) [Example 33, (E)-2,4,6-trimethoxystyryl-4-methoxy-3-aminobenzylsulfoxide] returned a melting point of 136 to 140 °C. In the data set on DU145, BT20, H157, DLD1, this compound returned a GI50 of 0.01 to 0.1 µM.
